Laboratory results taken from PubChem BioAssay AID2060511 (Molecular Pharmacology Branch, DTP, NCI, 2025).

System: 422866-222-R5-J1-PDC spheroids with HUVEC/MSC, viability
Test: Anticancer human tumor 422866-222-R5-J1-PDC patient-derived pancreatic adenocarcinoma cell line growth inhibition [GQUAD]
Settings: for IC50: curve of first compound; for viability, T/C: stronger effect = lower value
How it was run: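 Multi-cell-type spheroids of tumor cells with HUVEC and mesenchymal stem cells, treated with drug combinations. Concentrations descend in half-log steps from near clinical Cmax, or from 10 microM where Cmax is unknown; viability read-out.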
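Also: spheroids exposed to compounds for seven days before reading.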
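For viability, T/C in this document: percent viability relative to DMSO vehicle control taken as 100%.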

For `CC(C)n1c(=O)n(C)c2cnc3cc(F)c(-c4ccc(OCCCN5CCCCC5)nc4)cc3c21` + CN(C)c1ccc(Nc2c3ccc(NC(=O)CCN4CCCC4)cc3nc3cc(NC(=O)CCN4CCCC4)ccc23)cc1, the IC50 (second compound 0.0316 µM) was greater than 10 µM, the IC50 (second compound 0.1 µM) was greater than 10 µM and the IC50 (second compound 0.316 µM) was greater than 10 µM. For the same molecule, the IC50 (second compound 1 µM) was greater than 10 µM, the IC50 (second compound 3.16 µM) was greater than 10 µM and the IC50 (second compound 10 µM) was greater than 10 µM. For the same molecule, the viability, T/C (second compound 0.0316 µM, first compound 0.0316 µM) was 99.8%, the viability, T/C (second compound 0.0316 µM, first compound 0.1 µM) was 99% and the viability, T/C (second compound 0.0316 µM, first compound 0.316 µM) was 93.5%. It also gave a viability, T/C (second compound 0.0316 µM, first compound 1 µM) of 96%, a viability, T/C (second compound 0.0316 µM, first compound 3.16 µM) of 103% and a viability, T/C (second compound 0.0316 µM, first compound 10 µM) of 67.1%. It also gave a viability, T/C (second compound 0.1 µM, first compound 0.0316 µM) of 100%, a viability, T/C (second compound 0.1 µM, first compound 0.1 µM) of 78.5% and a viability, T/C (second compound 0.1 µM, first compound 0.316 µM) of 101%. For the same molecule, the viability, T/C (second compound 0.1 µM, first compound 1 µM) was 90.5%, the viability, T/C (second compound 0.1 µM, first compound 3.16 µM) was 90.7% and the viability, T/C (second compound 0.1 µM, first compound 10 µM) was 70%. The viability, T/C (second compound 0.316 µM, first compound 0.0316 µM) was 103%, the viability, T/C (second compound 0.316 µM, first compound 0.1 µM) was 95.4% and the viability, T/C (second compound 0.316 µM, first compound 0.316 µM) was 92.4%. For the same molecule, the viability, T/C (second compound 0.316 µM, first compound 1 µM) was 81.2%, the viability, T/C (second compound 0.316 µM, first compound 3.16 µM) was 88.8% and the viability, T/C (second compound 0.316 µM, first compound 10 µM) was 70.2%. It also gave a viability, T/C (second compound 1 µM, first compound 0.0316 µM) of 87.2%, a viability, T/C (second compound 1 µM, first compound 0.1 µM) of 92.5% and a viability, T/C (second compound 1 µM, first compound 0.316 µM) of 87.9%. It also gave a viability, T/C (second compound 1 µM, first compound 1 µM) of 98.6%, a viability, T/C (second compound 1 µM, first compound 3.16 µM) of 83.8% and a viability, T/C (second compound 1 µM, first compound 10 µM) of 55.1%. For the same molecule, the viability, T/C (second compound 3.16 µM, first compound 0.0316 µM) was 82.8%, the viability, T/C (second compound 3.16 µM, first compound 0.1 µM) was 80.1% and the viability, T/C (second compound 3.16 µM, first compound 0.316 µM) was 86.8%. It also gave a viability, T/C (second compound 3.16 µM, first compound 1 µM) of 88.9%, a viability, T/C (second compound 3.16 µM, first compound 3.16 µM) of 81.6% and a viability, T/C (second compound 3.16 µM, first compound 10 µM) of 61.6%. It also gave a viability, T/C (second compound 10 µM, first compound 0.0316 µM) of 73.8%, a viability, T/C (second compound 10 µM, first compound 0.1 µM) of 80.9% and a viability, T/C (second compound 10 µM, first compound 0.316 µM) of 80.4%. It also gave a viability, T/C (second compound 10 µM, first compound 1 µM) of 64.3%, a viability, T/C (second compound 10 µM, first compound 3.16 µM) of 68.5% and a viability, T/C (second compound 10 µM, first compound 10 µM) of 51.7%.
